According to paper PMC8362950 (PLoS ONE, 2021):
Read-outs that look alike come from different tables or passages of the source.

Assays:
6xHis-oMLE [1] = biological target: T1, 6xHis-oMLE (Oenococcus oeni, UniProt Q48796); assay type: biochemical
T1 construct: gene mleA

GST-CBU1241 = biological target: T2, GST-CBU1241 (Coxiella burnetii, UniProt Q83C87); conditions: substrate inhibition constant (KSi); 0.5 mM NADH, PBS pH 7.4
T2 construct: gene mdh

6xHis-oMLE [2] = biological target: T1, 6xHis-oMLE; assay type: biochemical; remark: listed apart in the source
6xHis-CBU0823 = biological target: T3, 6xHis-CBU0823 (Coxiella burnetii, UniProt Q83DB5); conditions: substrate inhibition constant (KSi), 1 mM MnCl2, PBS pH 7.4
T3 construct: gene sfcA
T3 sequence (Q83DB5 1-565 limits assumed): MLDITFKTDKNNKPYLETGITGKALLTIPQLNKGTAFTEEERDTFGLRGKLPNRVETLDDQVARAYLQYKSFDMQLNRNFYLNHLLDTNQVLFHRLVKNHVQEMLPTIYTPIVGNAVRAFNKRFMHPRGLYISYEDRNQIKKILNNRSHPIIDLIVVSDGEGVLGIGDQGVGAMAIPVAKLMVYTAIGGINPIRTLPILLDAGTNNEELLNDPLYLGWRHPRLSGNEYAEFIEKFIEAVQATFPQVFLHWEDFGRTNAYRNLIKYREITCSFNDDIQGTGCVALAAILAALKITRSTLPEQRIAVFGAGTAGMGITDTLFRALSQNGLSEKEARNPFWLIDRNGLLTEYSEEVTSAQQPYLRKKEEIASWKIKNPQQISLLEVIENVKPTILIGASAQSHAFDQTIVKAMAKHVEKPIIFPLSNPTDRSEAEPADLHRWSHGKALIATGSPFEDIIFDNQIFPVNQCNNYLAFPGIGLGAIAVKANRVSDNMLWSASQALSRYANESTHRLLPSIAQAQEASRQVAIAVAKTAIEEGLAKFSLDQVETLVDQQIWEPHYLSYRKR

T1 sequence (Q48796 whole entry): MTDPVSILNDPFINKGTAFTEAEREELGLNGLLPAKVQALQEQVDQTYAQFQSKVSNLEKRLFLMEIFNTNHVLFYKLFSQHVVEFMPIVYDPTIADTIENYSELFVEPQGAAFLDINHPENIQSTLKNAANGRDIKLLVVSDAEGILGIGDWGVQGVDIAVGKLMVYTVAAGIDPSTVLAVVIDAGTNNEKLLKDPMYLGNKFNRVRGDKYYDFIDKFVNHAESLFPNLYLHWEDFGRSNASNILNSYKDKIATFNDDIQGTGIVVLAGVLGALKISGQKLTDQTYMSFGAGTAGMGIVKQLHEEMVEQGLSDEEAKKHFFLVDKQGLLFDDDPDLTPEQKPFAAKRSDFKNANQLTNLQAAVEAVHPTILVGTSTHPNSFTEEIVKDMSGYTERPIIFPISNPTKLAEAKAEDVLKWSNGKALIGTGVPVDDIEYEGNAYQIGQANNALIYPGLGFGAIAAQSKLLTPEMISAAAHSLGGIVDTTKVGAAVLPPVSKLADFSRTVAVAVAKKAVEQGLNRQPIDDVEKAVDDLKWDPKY
T2 sequence (Q83C87 whole entry, looked up): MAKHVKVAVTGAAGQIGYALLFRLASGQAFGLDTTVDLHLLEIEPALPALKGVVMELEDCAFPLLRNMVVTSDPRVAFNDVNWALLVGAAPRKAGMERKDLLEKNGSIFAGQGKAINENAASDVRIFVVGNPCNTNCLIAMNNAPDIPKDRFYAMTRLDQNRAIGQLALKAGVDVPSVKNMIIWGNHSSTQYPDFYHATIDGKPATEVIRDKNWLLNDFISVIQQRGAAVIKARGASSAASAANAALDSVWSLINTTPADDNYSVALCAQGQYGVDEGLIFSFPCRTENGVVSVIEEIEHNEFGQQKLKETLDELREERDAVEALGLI

Q: For O=C(O)CC(=O)C(=O)O [oxaloacetate], which “NADH oxidation at 340 nm” value (6xHis-oMLE [1]) is on record?
A: the observed reduction of OAA indicating MDH activity was not detected in the previous characterisation

Q: And the Ki (GST-CBU1241)?
A: 1.25 (95% CI -0.85–3.39) mM

Q: Which results are given for O=C(O)C[C@H](O)C(=O)O [malate]?
A: GC-MS detection of lactate and pyruvate (6xHis-oMLE [2]): 6xHis-oMLE could generate amounts of lactate and pyruvate significantly above baseline; Ki (6xHis-CBU0823; NAD+ 2.5 mM (Fig 6 legend: 5 mM)): 10.86 (95% CI -7.31–29.05) mM

Q: For NC(=O)c1ccc[n+]([C@@H]2O[C@H](COP(=O)(O)OP(=O)(O)OC[C@H]3O[C@@H](n4cnc5c(N)ncnc54)[C@H](O)[C@@H]3O)[C@@H](O)[C@H]2O)c1 [NAD^+], which Ki (6xHis-CBU0823; 3 mM malate, printed as NADH, but b28, Fig 6B and S3F show varied NAD+) is on record?
A: 6.30 (95% CI 0.27–12.33) mM
